Source: article PMC5218480 (PLoS ONE, 2017)

Tested on: MV-4-11 cells
Experiment: Gene expression microarray analysis (Affymetrix PrimeView) and GSEA
Assay type: cell-based, human
Set-up: RFU PODN (11730768_x_at) / Fold change /veh PODN (11730768_x_at) / RFU LINC00158 (11744669_a_at) / Fold change /veh LINC00158 (11744669_a_at) / RFU DUSP10 (11751237_a_at) / Fold change /veh DUSP10 (11751237_a_at) / RFU ID3 (11757404_x_at) / Fold change /veh ID3 (11757404_x_at) / RFU PLEKHG5 (11737974_s_at) / Fold change /veh PLEKHG5 (11737974_s_at) / RFU LRRC4B (11730491_at) / Fold change /veh LRRC4B (11730491_at) / RFU GIMAP4 (11747438_a_at) / Fold change /veh GIMAP4 (11747438_a_at) / RFU KRT8 (11758183_x_at) / Fold change /veh KRT8 (11758183_x_at) / RFU CNN1 (11734310_a_at) / Fold change /veh CNN1 (11734310_a_at) / RFU VPS37D (11726825_at) / Fold change /veh VPS37D (11726825_at) / RFU C10orf10 (11716522_x_at) / Fold change /veh C10orf10 (11716522_x_at) / RFU KIR2DL2 /// KIR2DL4 /// KIR2DL5A /// KIR2DL5B /// KIR2DS1 /// KIR2DS2 /// KIR2DS3 /// KIR2DS4 /// KIR3DL3 /// KIR3DL3 /// KIR3DS1 (11738374_at) / Fold change /veh KIR2DL2 /// KIR2DL4 /// KIR2DL5A /// KIR2DL5B /// KIR2DS1 /// KIR2DS2 /// KIR2DS3 /// KIR2DS4 /// KIR3DL3 /// KIR3DL3 /// KIR3DS1 (11738374_at) / RFU C1QL1 (11718748_at) / Fold change /veh C1QL1 (11718748_at) / RFU TMPRSS4 (11747572_a_at) / Fold change /veh TMPRSS4 (11747572_a_at) / RFU HAMP (11756126_x_at) / Fold change /veh HAMP (11756126_x_at) / RFU RNFT2 (11725882_a_at) / Fold change /veh RNFT2 (11725882_a_at) / RFU NR4A2 (11747474_a_at) / Fold change /veh NR4A2 (11747474_a_at) / RFU ABCC12 (11746883_a_at) / Fold change /veh ABCC12 (11746883_a_at) / RFU TMEM136 (11760407_x_at) / Fold change /veh TMEM136 (11760407_x_at) / RFU CLDN22 /// WWC2 (11732394_at) / Fold change /veh CLDN22 /// WWC2 (11732394_at) / RFU HLA-DPB1 (11760878_x_at) / Fold change /veh HLA-DPB1 (11760878_x_at) / RFU SPINT1 (11716480_a_at) / Fold change /veh SPINT1 (11716480_a_at) / RFU GAP43 (11754022_s_at) / Fold change /veh GAP43 (11754022_s_at) / RFU A4GNT (11735810_at) / Fold change /veh A4GNT (11735810_at) / RFU PRB3 (11715151_x_at) / Fold change /veh PRB3 (11715151_x_at) / RFU TUBB4B (11761932_at) / Fold change /veh TUBB4B (11761932_at) / RFU CAPN14 (11732068_a_at) / Fold change /veh CAPN14 (11732068_a_at) / RFU TMCC2 (11721928_a_at) / Fold change /veh TMCC2 (11721928_a_at) / RFU IRGQ (11745062_a_at) / Fold change /veh IRGQ (11745062_a_at) / RFU FAM174B (11720279_a_at) / Fold change /veh FAM174B (11720279_a_at) / RFU TMPRSS4 (11748680_a_at) / Fold change /veh TMPRSS4 (11748680_a_at) / RFU FAM212B (11763350_a_at) / Fold change /veh FAM212B (11763350_a_at) / RFU PLEKHG5 (11743358_a_at) / Fold change /veh PLEKHG5 (11743358_a_at) / RFU ZSCAN30 (11745921_a_at) / Fold change /veh ZSCAN30 (11745921_a_at) / RFU CMKLR1 (11741424_a_at) / Fold change /veh CMKLR1 (11741424_a_at) / RFU LOC101060620 /// MAPK8IP1 (11723275_at) / Fold change /veh LOC101060620 /// MAPK8IP1 (11723275_at) / RFU SPTSSB (11747773_x_at) / Fold change /veh SPTSSB (11747773_x_at) / RFU PRSS12 (11739890_at) / Fold change /veh PRSS12 (11739890_at) / RFU BIN1 (11741810_x_at) / Fold change /veh BIN1 (11741810_x_at) / RFU WNT11 (11732464_a_at) / Fold change /veh WNT11 (11732464_a_at) / RFU C10orf10 (11716521_a_at) / Fold change /veh C10orf10 (11716521_a_at) / RFU C5orf56 (11738089_at) / Fold change /veh C5orf56 (11738089_at) / RFU CYB561 (11721691_x_at) / Fold change /veh CYB561 (11721691_x_at) / RFU ANKRD19P (11752326_a_at) / Fold change /veh ANKRD19P (11752326_a_at) / RFU OR2T12 /// OR2T33 /// OR2T8 (11738714_s_at) / Fold change /veh OR2T12 /// OR2T33 /// OR2T8 (11738714_s_at) / RFU VCAN (11748164_a_at) / Fold change /veh VCAN (11748164_a_at) / RFU JSRP1 (11732532_at) / Fold change /veh JSRP1 (11732532_at) / RFU KRTAP10-11 (11738290_x_at) / Fold change /veh KRTAP10-11 (11738290_x_at) / RFU MYO3A (11730013_a_at) / Fold change /veh MYO3A (11730013_a_at) / RFU EBF3 (11725865_a_at) / Fold change /veh EBF3 (11725865_a_at) / RFU CAMK2N1 (11719241_x_at) / Fold change /veh CAMK2N1 (11719241_x_at) / RFU C5orf56 (11738088_a_at) / Fold change /veh C5orf56 (11738088_a_at) / RFU OLFML3 (11715873_a_at) / Fold change /veh OLFML3 (11715873_a_at) / RFU LOC100653217 /// NTM (11731650_a_at) / Fold change /veh LOC100653217 /// NTM (11731650_a_at) / RFU MAPK11 (11762145_a_at) / Fold change /veh MAPK11 (11762145_a_at) / RFU FIZ1 (11724087_x_at) / Fold change /veh FIZ1 (11724087_x_at) / RFU OASL (11726364_x_at) / Fold change /veh OASL (11726364_x_at) / RFU SOX15 (11748057_x_at) / Fold change /veh SOX15 (11748057_x_at) / RFU CD79A (11719716_a_at) / Fold change /veh CD79A (11719716_a_at) / RFU HIST1H1D (11736915_at) / Fold change /veh HIST1H1D (11736915_at) / RFU CASKIN2 (11723855_a_at) / Fold change /veh CASKIN2 (11723855_a_at) / RFU LOC730098 (11760151_x_at) / Fold change /veh LOC730098 (11760151_x_at) / RFU OR4N2 (11742367_at) / Fold change /veh OR4N2 (11742367_at) / RFU PRRT2 (11749266_a_at) / Fold change /veh PRRT2 (11749266_a_at) / RFU SNX32 (11753110_a_at) / Fold change /veh SNX32 (11753110_a_at) / RFU CDHR5 (11726645_a_at) / Fold change /veh CDHR5 (11726645_a_at) / RFU RCAN1 (11760418_a_at) / Fold change /veh RCAN1 (11760418_a_at) / RFU FAM167A (11723789_a_at) / Fold change /veh FAM167A (11723789_a_at) / RFU FAM26E (11764081_at) / Fold change /veh FAM26E (11764081_at) / RFU ISYNA1 (11749810_s_at) / Fold change /veh ISYNA1 (11749810_s_at) / RFU ACY1 (11761880_at) / Fold change /veh ACY1 (11761880_at) / RFU 11764098_at / Fold change /veh 11764098_at / RFU SAMD14 (11745864_x_at) / Fold change /veh SAMD14 (11745864_x_at) / RFU NPB (11741838_a_at) / Fold change /veh NPB (11741838_a_at) / RFU TMPRSS6 (11731388_a_at) / Fold change /veh TMPRSS6 (11731388_a_at) / RFU KRTAP10-2 (11738614_at) / Fold change /veh KRTAP10-2 (11738614_at) / RFU ARHGAP8 /// PRR5-ARHGAP8 (11727945_x_at) / Fold change /veh ARHGAP8 /// PRR5-ARHGAP8 (11727945_x_at) / RFU KRTAP5-7 /// NADSYN1 (11734609_at) / Fold change /veh KRTAP5-7 /// NADSYN1 (11734609_at) / RFU RASL12 (11751679_a_at) / Fold change /veh RASL12 (11751679_a_at) / RFU CDKN2B (11736163_a_at) / Fold change /veh CDKN2B (11736163_a_at) / RFU PRF1 (11729649_at) / Fold change /veh PRF1 (11729649_at) / RFU, ZNF638 /// ZNF638-IT1 / Fold change vs veh, ZNF638 /// ZNF638-IT1 / RFU, PANK3 / Fold change vs veh, PANK3 / RFU, SH3YL1 / Fold change vs veh, SH3YL1 / RFU, ZEB2 / Fold change vs veh, ZEB2 / RFU, NRIP1 / Fold change vs veh, NRIP1 / RFU, PTTG1IP / Fold change vs veh, PTTG1IP / RFU, CAPN2 / Fold change vs veh, CAPN2 / RFU, MED14 / Fold change vs veh, MED14 / RFU, SNORA58 / Fold change vs veh, SNORA58 / RFU, C1orf63 / Fold change vs veh, C1orf63 / RFU, LRRFIP1 / Fold change vs veh, LRRFIP1 / RFU, NDUFAF7 / Fold change vs veh, NDUFAF7 / RFU, SLC12A2 / Fold change vs veh, SLC12A2 / RFU, IBTK / Fold change vs veh, IBTK / RFU, ESF1 / Fold change vs veh, ESF1 / Fold change vs veh, TMEM50B / RFU, TAOK1 / Fold change vs veh, TAOK1 / RFU, ACBD3 / Fold change vs veh, ACBD3 / RFU, TMA16 / Fold change vs veh, TMA16 / RFU, RWDD3 / Fold change vs veh, RWDD3 / RFU, BCAT1 / Fold change vs veh, BCAT1 / RFU, EDEM3 / Fold change vs veh, EDEM3 / RFU, TMEM33 / Fold change vs veh, TMEM33 / RFU, WDR75 / Fold change vs veh, WDR75 / RFU, AHCTF1 / Fold change vs veh, AHCTF1 / RFU, TFRC / Fold change vs veh, TFRC / RFU, ZDHHC17 / Fold change vs veh, ZDHHC17 / RFU, NOM1 / Fold change vs veh, NOM1 / RFU, ARL8B / Fold change vs veh, ARL8B / RFU, ZBTB11 / Fold change vs veh, ZBTB11 / RFU, TAMM41 / Fold change vs veh, TAMM41 / RFU, KIAA1704 /// LOC100996395 / Fold change vs veh, KIAA1704 /// LOC100996395 / RFU, ING1 / Fold change vs veh, ING1 / RFU, TRMT61B / Fold change vs veh, TRMT61B / RFU, FUBP3 / Fold change vs veh, FUBP3 / RFU, TP53 / Fold change vs veh, TP53 / RFU, TNKS2 / Fold change vs veh, TNKS2 / RFU, ZFP14 / Fold change vs veh, ZFP14 / RFU, ACTR2 / Fold change vs veh, ACTR2 / RFU, PPP3R1 / Fold change vs veh, PPP3R1 / RFU, PIK3R1 / Fold change vs veh, PIK3R1 / RFU, HNRNPA1 / Fold change vs veh, HNRNPA1 / RFU, RNF170 / Fold change vs veh, RNF170 / RFU, ZNF28 / Fold change vs veh, ZNF28 / RFU, RNGTT / Fold change vs veh, RNGTT / RFU, OGT / Fold change vs veh, OGT / RFU, BRD1 / Fold change vs veh, BRD1 / RFU, MARS / Fold change vs veh, MARS / RFU, ZNF655 / Fold change vs veh, ZNF655 / RFU, FAHD1 / Fold change vs veh, FAHD1 / RFU, BDP1 / Fold change vs veh, BDP1 / RFU, LRRCC1 / Fold change vs veh, LRRCC1 / RFU, ARID1A / Fold change vs veh, ARID1A / RFU, ZNF146 / Fold change vs veh, ZNF146 / RFU, ZNF330 / Fold change vs veh, ZNF330 / RFU, GPN3 / Fold change vs veh, GPN3 / RFU, C9orf123 / Fold change vs veh, C9orf123 / RFU, N4BP2L2 / Fold change vs veh, N4BP2L2 / RFU, ARFIP1 / Fold change vs veh, ARFIP1 / RFU, FAM179B / Fold change vs veh, FAM179B / RFU, BCL10 / Fold change vs veh, BCL10 / RFU, UHRF1BP1L / Fold change vs veh, UHRF1BP1L / RFU, BET1 / Fold change vs veh, BET1 / RFU, CNOT2 / Fold change vs veh, CNOT2 / RFU, ZNF268 / Fold change vs veh, ZNF268 / Fold change vs veh, ZNF507 / RFU, DGCR2 / Fold change vs veh, DGCR2 / RFU, WDSUB1 / Fold change vs veh, WDSUB1 / Fold change vs veh, HSP90B1 /// MIR3652 / RFU, ADSS / Fold change vs veh, ADSS / RFU, GK / Fold change vs veh, GK / RFU, ZNF148 / Fold change vs veh, ZNF148 / RFU, TAF9 / Fold change vs veh, TAF9 / RFU, SLC1A5 / Fold change vs veh, SLC1A5 / RFU, SLMO2 / Fold change vs veh, SLMO2 / RFU, ABCC4 / Fold change vs veh, ABCC4 / RFU, LOC101060439 /// RAP1B / Fold change vs veh, LOC101060439 /// RAP1B / RFU, RFX7 / Fold change vs veh, RFX7 / RFU, GTPBP10 / Fold change vs veh, GTPBP10 / RFU, CNEP1R1 / Fold change vs veh, CNEP1R1 / RFU, BIVM-ERCC5 /// ERCC5 / Fold change vs veh, BIVM-ERCC5 /// ERCC5 / RFU, ILF3 / Fold change vs veh, ILF3 / RFU 11762660_at / Fold change /veh 11762660_at / RFU VCAN (11757783_s_at) / Fold change /veh VCAN (11757783_s_at) / RFU DDX43 (11728927_at) / Fold change /veh DDX43 (11728927_at) / RFU KRT8 (11758188_x_at) / Fold change /veh KRT8 (11758188_x_at) / RFU NKD1 (11759106_at) / Fold change /veh NKD1 (11759106_at) / RFU SRD5A1 (11742802_a_at) / Fold change /veh SRD5A1 (11742802_a_at) / RFU TPSAB1 /// TPSB2 (11721975_s_at) / Fold change /veh TPSAB1 /// TPSB2 (11721975_s_at) / RFU GSTM3 (11746129_a_at) / Fold change /veh GSTM3 (11746129_a_at) / RFU IL23R (11737362_x_at) / Fold change /veh IL23R (11737362_x_at) / RFU TMEM51 (11727254_a_at) / Fold change /veh TMEM51 (11727254_a_at) / RFU PIWIL2 (11732686_x_at) / Fold change /veh PIWIL2 (11732686_x_at) / RFU ORM1 (11744905_x_at) / Fold change /veh ORM1 (11744905_x_at) / RFU CCDC152 (11743942_at) / Fold change /veh CCDC152 (11743942_at) / RFU ECM1 (11717891_a_at) / Fold change /veh ECM1 (11717891_a_at) / RFU IL23R (11748794_a_at) / Fold change /veh IL23R (11748794_a_at) / RFU TNFAIP8L3 (11732012_x_at) / Fold change /veh TNFAIP8L3 (11732012_x_at) / RFU MBOAT4 (11741988_at) / Fold change /veh MBOAT4 (11741988_at) / RFU 11764193_at / Fold change /veh 11764193_at / RFU TMEM53 (11763286_at) / Fold change /veh TMEM53 (11763286_at) / RFU MAGEB2 (11727129_at) / Fold change /veh MAGEB2 (11727129_at) / RFU TMEM200A (11744735_a_at) / Fold change /veh TMEM200A (11744735_a_at) / RFU CCDC152 (11751479_a_at) / Fold change /veh CCDC152 (11751479_a_at) / RFU FAM211A (11726209_a_at) / Fold change /veh FAM211A (11726209_a_at) / RFU RGS16 (11746705_a_at) / Fold change /veh RGS16 (11746705_a_at) / RFU VCAN (11755009_s_at) / Fold change /veh VCAN (11755009_s_at) / RFU RHOB (11743442_s_at) / Fold change /veh RHOB (11743442_s_at) / RFU RGS16 (11720943_a_at) / Fold change /veh RGS16 (11720943_a_at) / RFU RGS16 (11720944_at) / Fold change /veh RGS16 (11720944_at) / RFU, VPS4B / Fold change vs veh, VPS4B / RFU, CREB1 / Fold change vs veh, CREB1 / RFU, DNAJC13 / Fold change vs veh, DNAJC13 / RFU, GNAQ / Fold change vs veh, GNAQ / RFU, CDK5R1 / Fold change vs veh, CDK5R1 / RFU, ZRANB3 / Fold change vs veh, ZRANB3 / RFU, CUL4A / Fold change vs veh, CUL4A / RFU, CCNY / Fold change vs veh, CCNY / RFU, UFL1 / Fold change vs veh, UFL1 / RFU, COG3 / Fold change vs veh, COG3 / RFU, DIAPH2 / Fold change vs veh, DIAPH2 / RFU, SKA2 / Fold change vs veh, SKA2 / RFU, AFF3 / Fold change vs veh, AFF3 / RFU, LMF1 / Fold change vs veh, LMF1 / RFU, IPO11 / Fold change vs veh, IPO11 / RFU, DFFB / Fold change vs veh, DFFB / RFU, FOXP1 / Fold change vs veh, FOXP1 / RFU, CARD8 / Fold change vs veh, CARD8 / RFU, STRN3 / Fold change vs veh, STRN3 / RFU, ADK / Fold change vs veh, ADK / RFU, RASSF2 / Fold change vs veh, RASSF2 / RFU, WIPF1 / Fold change vs veh, WIPF1 / RFU, LARP1B / Fold change vs veh, LARP1B / RFU, RASA1 / Fold change vs veh, RASA1 / RFU, RB1 / Fold change vs veh, RB1 / RFU, PPFIA1 / Fold change vs veh, PPFIA1 / RFU, MAT2A / Fold change vs veh, MAT2A / RFU, CCT5 / Fold change vs veh, CCT5 / RFU, WDR92 / Fold change vs veh, WDR92 / RFU, CUX1 / Fold change vs veh, CUX1 / RFU, TTC7A / Fold change vs veh, TTC7A / RFU, TMEM135 / Fold change vs veh, TMEM135 / RFU, DEPTOR / Fold change vs veh, DEPTOR / RFU, CPM / Fold change vs veh, CPM / RFU, DNAJB6 / Fold change vs veh, DNAJB6 / RFU, CACNA2D3 / Fold change vs veh, CACNA2D3 / RFU, DTX4 / Fold change vs veh, DTX4 / RFU, TFCP2 / Fold change vs veh, TFCP2 / RFU, GMCL1 /// GMCL1P1 / Fold change vs veh, GMCL1 /// GMCL1P1 / RFU, AEBP2 / Fold change vs veh, AEBP2 / RFU, SNHG1 /// SNORD22 /// SNORD25 /// SNORD26 /// SNORD27 /// SNORD28 /// SNORD29 /// SNORD31 / Fold change vs veh, SNHG1 /// SNORD22 /// SNORD25 /// SNORD26 /// SNORD27 /// SNORD28 /// SNORD29 /// SNORD31 / Fold change (Aza/veh), C12orf56 (ProbeSet 11735607_a_at) / Fold change (ACY-1035/veh), C12orf56 (ProbeSet 11735607_a_at) / Fold change (Aza/veh), FGFR1OP (ProbeSet 11751329_s_at) / Fold change (ACY-1035/veh), FGFR1OP (ProbeSet 11751329_s_at) / Fold change (Aza/veh), VPS36 (ProbeSet 11739960_a_at) / Fold change (ACY-1035/veh), VPS36 (ProbeSet 11739960_a_at) / RFU SYPL1 (11715823_x_at) / Fold change /veh SYPL1 (11715823_x_at) / RFU IGFBP7 (11715501_s_at) / Fold change /veh IGFBP7 (11715501_s_at) / RFU REEP3 (11722064_at) / Fold change /veh REEP3 (11722064_at) / RFU IGLL1 (11728026_x_at) / Fold change /veh IGLL1 (11728026_x_at): dose or concentration left out as unconfirmed
Conditions: ProbeSet 11732433_s_at; LIST B

Nc1ccc(-c2cccs2)cc1NC(=O)c1ccc2c(c1)cc(C1CC1)n2CCN1CCOCC1 [ACY-1035]
Fold change vs veh, GK: 1.08
